tested on: hepatic CYP1A1 activity (ethoxyresorufin-O-deethylase, EROD); assay: Hepatic EROD activity in hepatic microsomal fractions after single oral dose; type: in vivo, female C57BL/6 mice; conditions: dose metric Adm dose; 3 days after single oral dose
Procedure: (§1) Animals. Eight-week-old female C57BL/6 mice (Harlan laboratories, Venray, the Netherlands) were randomly assigned to treatment groups (six animals per group) and allowed to acclimate for 1.5 weeks. The animals were housed in groups in standard cages and conditions (23 ± 2°C, 50–60% relative humidity, 12-hr dark/light cycle) with free access to food and water. Mice received a single dose of test compound by oral gavage at a dosing volume of 10 mL/kg body weight (BW). Mice treated with corn oil vehicle (10 mL/kg BW) served as controls. For each congener, five different doses were administered, ranging from 0.5–100 μg/kg BW (TCDD) to 5,000–500,000 µg/kg BW (PCB-153). Detailed information on doses is provided in Supplemental Material, Table S1 (http://dx.doi.org/10.1289/ehp.1206336). On day 3 after dosing, animals were euthanized by CO2/O2 asphyxiation, and blood was immediately collected from the abdominal aorta. The liver, thymus, spleen, and adipose tissue were removed, weighed (liver, thymus, and spleen), snap frozen, and stored at –80°C. All animal treatments were performed with permission of the Animal Ethical Committee (DEC Utrecht) and performed according to the [Law on Animal Experiments (1977)]. Animals were treated humanely and with regard for alleviation of suffering.
EROD activity. We determined hepatic CYP1A1 activity using ethoxyresorufin-O-deethylase (EROD) activity in hepatic microsomal fractions as described by [Schulz et al. (2012)].
Data analysis. We obtained concentration–response curves using a sigmoidal dose–response nonlinear regression curve fit with variable slope (GraphPad Prism 6.01; GraphPad Software Inc., San Diego, CA, USA):
In this Hill equation, y is the dependent variable (EROD activity or fold induction of mRNA levels), x the independent variable (administered or systemic dose), E0 is the estimated background response level, Emax is the maximum response, b is the estimated median effective concentration (EC50), and n is the shaping parameter of the Hill curve.
Using the congener-specific BMR20TCDD concentration, REPs were calculated relatively to TCDD: […]

Q: Which “BMR20TCDD Liver EROD activity” value does the source give for Clc1ccc(-c2cc(Cl)c(Cl)cc2Cl)cc1Cl [PCB-118, 2,3´,4,4´,5-pentachlorobiphenyl] here?
A: 55,259 µg/kg BW

Q: For Clc1ccc(-c2cc(Cl)c(Cl)c(Cl)c2)cc1Cl [PCB-126, 3,3´,4,4´,5-pentachlorobiphenyl], which “BMR20TCDD Liver EROD activity” value is on record?
A: 29.3 µg/kg BW

same assay, conditions: dose metric Syst adipose; 3 days after single oral dose

Q: Which “BMR20TCDD Liver EROD activity” value does the source give for Clc1ccc(-c2cc(Cl)c(Cl)cc2Cl)cc1Cl [PCB-118, 2,3´,4,4´,5-pentachlorobiphenyl] here?
A: 359,114 ng/g lipid

Q: Which “BMR20TCDD Liver EROD activity” value does the source give for Clc1ccc(-c2cc(Cl)c(Cl)c(Cl)c2)cc1Cl [PCB-126, 3,3´,4,4´,5-pentachlorobiphenyl] here?
A: 72.7 ng/g lipid

same assay, conditions: dose metric Syst plasma; 3 days after single oral dose

Q: For Clc1ccc(-c2cc(Cl)c(Cl)cc2Cl)cc1Cl [PCB-118, 2,3´,4,4´,5-pentachlorobiphenyl], which “BMR20TCDD Liver EROD activity” value is on record?
A: 311,118 ng/g lipid

Q: Which “BMR20TCDD Liver EROD activity” value does the source give for Clc1ccc(-c2cc(Cl)c(Cl)c(Cl)c2)cc1Cl [PCB-126, 3,3´,4,4´,5-pentachlorobiphenyl] here?
A: 72.3 ng/g lipid

same assay, conditions: relative to TCDD; dose metric Adm dose (µg/kg BW)

Q: Which “REP Liver EROD activity” value does the source give for Clc1ccc(-c2cc(Cl)c(Cl)cc2Cl)cc1Cl [PCB-118, 2,3´,4,4´,5-pentachlorobiphenyl] here?
A: 0.000005

Q: For Clc1ccc(-c2cc(Cl)c(Cl)c(Cl)c2)cc1Cl [PCB-126, 3,3´,4,4´,5-pentachlorobiphenyl], which “REP Liver EROD activity” value is on record?
A: 0.01

same assay, conditions: relative to TCDD; dose metric Syst adipose (ng/g lipid)

Q: For Clc1ccc(-c2cc(Cl)c(Cl)cc2Cl)cc1Cl [PCB-118, 2,3´,4,4´,5-pentachlorobiphenyl], which “REP Liver EROD activity” value is on record?
A: 0.000003

Q: How did the “REP Liver EROD activity” value turn out when Clc1ccc(-c2cc(Cl)c(Cl)c(Cl)c2)cc1Cl [PCB-126, 3,3´,4,4´,5-pentachlorobiphenyl] was run?
A: 0.02

same assay, conditions: relative to TCDD; dose metric Syst liver (ng/g lipid)

Q: With Clc1ccc(-c2cc(Cl)c(Cl)cc2Cl)cc1Cl [PCB-118, 2,3´,4,4´,5-pentachlorobiphenyl] as the molecule, how does the “REP Liver EROD activity” value read?
A: 0.00006

Q: For Clc1ccc(-c2cc(Cl)c(Cl)c(Cl)c2)cc1Cl [PCB-126, 3,3´,4,4´,5-pentachlorobiphenyl], which “REP Liver EROD activity” value is on record?
A: 0.003

same assay, conditions: relative to TCDD; dose metric Syst liver (ng/g liver)

Q: How did the “REP Liver EROD activity” value turn out when Clc1ccc(-c2cc(Cl)c(Cl)cc2Cl)cc1Cl [PCB-118, 2,3´,4,4´,5-pentachlorobiphenyl] was run?
A: 0.00006

Q: How did the “REP Liver EROD activity” value turn out when Clc1ccc(-c2cc(Cl)c(Cl)c(Cl)c2)cc1Cl [PCB-126, 3,3´,4,4´,5-pentachlorobiphenyl] was run?
A: 0.004

same assay, conditions: relative to TCDD; dose metric Syst plasma (ng/g lipid)

Q: How did the “REP Liver EROD activity” value turn out when Clc1ccc(-c2cc(Cl)c(Cl)cc2Cl)cc1Cl [PCB-118, 2,3´,4,4´,5-pentachlorobiphenyl] was run?
A: 0.000004

Q: Clc1ccc(-c2cc(Cl)c(Cl)c(Cl)c2)cc1Cl [PCB-126, 3,3´,4,4´,5-pentachlorobiphenyl] was tested. Which “REP Liver EROD activity” value did it give?
A: 0.02

tested on: Cyp1a1 mRNA in PBLs; assay: Cyp1a1 gene expression in peripheral blood lymphocytes; type: in vivo, female C57BL/6 mice; conditions: dose metric Adm dose; 3 days after single oral dose
Procedure: as §1
Plasma and PBL isolation. Blood from two mice was pooled (total volume of approximately 1.4 mL); plasma and PBLs were then isolated using Ficoll Paque gradient (GE Healthcare Europe, Diegem, Belgium). Plasma samples were stored at –80°C until compound analysis. Isolated lymphocytes were lysed with RLT buffer (QIAGEN, Venlo, the Netherlands) as described in the QIAGEN RNAeasy kit protocol and stored at –80°C until use.
RNA isolation and quantitative real-time polymerase chain reaction (PCR). Total RNA was isolated from liver and PBLs using a QIAGEN RNeasy kit (QIAGEN). Purity and concentration of the isolated RNA was determined by measuring the absorbance ratio at 260/280 nm and 230/260 nm with a Nanodrop 2000 spectrophotometer (Thermo Scientific, Asheville, NC, USA). RNA was reverse transcribed to complementary DNA (cDNA) using the iScript cDNA synthesis Kit (Bio-Rad, Veenendaal, the Netherlands). Quantitative real-time PCR analyses were performed using the iQ Real-Time PCR Detection System with SYBR green (Bio-Rad). Amplification reactions were set up with […] containing 12.5 μL iQ SYBR Green Supermix (Bio-rad), 0.5 μL distilled H2O, 1 μL (10 μM) forward primer, 1 μL (10 μM) reverse primer, and 10 μL first strand cDNA (10X diluted). Primer sequences were as follows: Cyp1a1: forward-5´-GGTTAACCATGACCGGGAACT-3´ and reverse-5´-TGCCCAAACCAAAGAGAGTGA-3´ ([Schulz et al. 2012]); Cyp1a2: forward-5´-ACATTCCCAAGGAGCGCTGTATCT-3´ and reverse-5´-GTCGATGGCCGAGTTGTTATTGGT-3´ ([Flaveny et al. 2010]); Cyp1b1: forward-5´-GTGGCTGCTCATCCTCTTTACC-3´ and reverse-5´-CCCACAACCTGGTCCAACTC-3´ ([Berge et al. 2004]); β-actin: forward-5´-ATGCTCCCCGGGCTGTAT-3´ and reverse-5´-CATAGGAGTCCTTCTGACCCATTC-3´ ([Schulz et al. 2012]). All primers were run through the National Center for Biotechnology Information Primer-BLAST database (http://www.ncbi.nlm.nih.gov/tools/primer-blast/) to confirm specificity and validate for optimal annealing temperature (60°C for all primers) and efficiency. […] The following program was used for denaturation and amplification of cDNA: 3 min at 95°C, followed by 40 cycles of 15 sec at 95°C and 45 sec at 60°C. Gene expression for each sample was expressed as threshold cycle (Ct), normalized to the reference gene β-actin (ΔCt). We calculated fold induction relative to the control group.
Data analysis. We obtained concentration–response curves using a sigmoidal dose–response nonlinear regression curve fit with variable slope (GraphPad Prism 6.01; GraphPad Software Inc., San Diego, CA, USA): […]

Q: For Clc1ccc(-c2cc(Cl)c(Cl)c(Cl)c2)cc1Cl [PCB-126, 3,3´,4,4´,5-pentachlorobiphenyl], which “BMR20TCDD PBLs Cyp1a1 mRNA” value is on record?
A: 603 µg/kg BW

same assay, conditions: dose metric Syst plasma; 3 days after single oral dose

Q: For Clc1ccc(-c2cc(Cl)c(Cl)c(Cl)c2)cc1Cl [PCB-126, 3,3´,4,4´,5-pentachlorobiphenyl], which “BMR20TCDD PBLs Cyp1a1 mRNA” value is on record?
A: 847 ng/g lipid

same assay, conditions: relative to TCDD; dose metric Adm dose (µg/kg BW)

Q: Which “REP PBLs Cyp1a1 mRNA” value does the source give for Clc1ccc(-c2cc(Cl)c(Cl)c(Cl)c2)cc1Cl [PCB-126, 3,3´,4,4´,5-pentachlorobiphenyl] here?
A: 0.04

same assay, conditions: relative to TCDD; dose metric Syst plasma (ng/g lipid)

Q: For Clc1ccc(-c2cc(Cl)c(Cl)c(Cl)c2)cc1Cl [PCB-126, 3,3´,4,4´,5-pentachlorobiphenyl], which “REP PBLs Cyp1a1 mRNA” value is on record?
A: 0.06

Reference: publication PMC3702004, “Comparison of Intake and Systemic Relative Effect Potencies of Dioxin-like Compounds in Female Mice after a Single Oral Dose” (Environmental Health Perspectives, 2013)
